Measured values as given in PMC9503459, “Antifungal Activity, Structural Stability, and Immunomodulatory Effects on Human Immune Cells of Defensin from the Lentil Lens culinaris” (Membranes, 2022).
No end group written: not given here.

Test system: monocyte-derived mature dendritic cells (moDCs)
Assay: Cytokine response by multiplex xMAP, moDCs
Assay type: cell-based, human
Details: 2 µM, 24 h
Description: Colorectal adenocarcinoma Caco-2 cell line (ATCC HTB-37) was cultured in complete DMEM/F12 (1:1) medium containing 10% fetal bovine serum (FBS, Gibco) and 1X antibiotic-antimycotic solution (1XAAS, Invitrogen, Waltham, MA, USA). The acute monocytic leukemia THP-1 line (ATCC TIB-202) was cultured in complete RPMI-1640 medium, containing 10% FBS, 1XAAS, and […]. THP-1 cells were differentiated into pro-inflammatory macrophages (Mφ1) with phorbol 12-myristate 13-acetate (Sigma-Aldrich) for 24 h and subsequently polarized with lipopolysaccharide from E. coli (Sigma-Aldrich) and rhIFN-γ (Sigma-Aldrich) for another 48 h according to previously reported protocol. All cells were cultured in a humidified CO2 incubator (5% CO2, 37 °C). Primary peripheral blood mononuclear cells (PBMCs) collected from a healthy donor were purchased from American Type Culture Collection (ATCC PCS-800-011). CD4^+ T-helper and CD8^+ T cytotoxic cells were isolated from PBMCs by magnetic separation with mouse anti-human CD4-PE (clone 13B8.2, Beckman Coulter Diagnostics, Pasadena, CA, USA) and CD8-PE (clone REA734, Miltenyi Biotec, Bergisch Gladbach, Germany), Anti-PE MicroBeads (Miltenyi Biotec), and LS Separation Columns (Miltenyi Biotec). Isolated CD4^+ and CD8^+ cells were expanded separately with Dynabeads™ Human T-Expander CD3/CD28 (Gibco, Waltham, MA, USA) in RPMI-1640 supplemented with 10% FBS, 1XAAS and 100 U/mL rh-IL-2 (Gibco). Regulatory CD4^+ FoxP3^+ T cells (Tregs) were isolated from PBMCs by magnetic separation with CD4^+CD25^+ Regulatory T Cell Isolation Kit, human (Miltenyi Biotec). Primary CD14^+ blood monocytes were isolated from PBMCs by adherence according to standard technique. Monocyte-derived mature dendritic cells (moDCs) were obtained from CD14^+ blood monocytes according to the previously reported protocol. Briefly, blood monocytes were incubated in complete RPMI-1640 medium, containing 10% FBS, 1XAAS, 800 U/mL rhGM-CSF (Sci-Store, Russia, Moscow) and 500 U/mL rhIL-4 (Sci-Store) for 3 days. Fresh complete RPMI-1640 medium with rhGM-CSF and rhIL-4 was added to the culture on day 3. On day 5, fresh complete RPMI-1640 containing 100 U/mL rhTNF-α (Sigma) as well as 800 U/mL rhGM-CSF and 500 U/mL rhIL-4 was added and the culture was incubated for another 4 days until full maturation.
Caco-2 cells were seeded into the wells of a 48-well plate, coated with 0.1% bovine collagen (Sigma-Aldrich) for 24 h, 3 weeks before the experiment with complete DMEM/F12 (1:1) medium renewal every 2–3 days. Monocytes, moDCs, CD4^+ T-helper and CD8^+ T cytotoxic cells, Mφ1, and Regulatory CD4^+ FoxP3^+ T cells were seeded into the wells of 48-well plates in the complete RPMI-1640 medium supplemented with 10% Human AB serum (HABS, Capricorn Scientific, Ebsdorfergrund, Germany) and 1XAAS 24 h prior to the experiment; medium in Caco-2-containing wells was also replaced with the same medium. After 24 h, half of the medium in each well was replaced by fresh complete RPMI-1640 medium with 10% HABS, supplemented with 4 µM of Lc-def for the sample wells or fresh medium alone for the control wells. Cell cultures were kept in CO2-incubator (5% CO2, 37 °C) for another 24 h. Culture supernatants were collected 24 h later and stored at −70 °C degrees less than one month prior to the analytes assessment. […]

Lc-def: defensin from lentil Lens culinaris seeds (UniProt:B3F051), recombinant, overexpressed in Escherichia coli (KTCENLSDSFKGPCIPDGNCNKHCKEKEHLLSGRCRDDFRCWCTRNC; disulfide (positions not given here); ends not checked; also: disulfide bonds present, pairing not given here; UniProt B3F051 28-74, looked up)
EGF: 2.16 pg/mL
Eotaxin: <3.23↓ pg/ml
FGF-2: 34.19 pg/mL
FLT-3L: 0.84 pg/mL
Fractalkine: <23.19↓ pg/ml
G-CSF: 4.71 pg/mL
GM-CSF: 10.34 pg/mL
GROa: <0.67↓ pg/ml
IFNa2: 7.77 pg/mL
IFNg: 3.79 pg/mL
IL-1RA: 37.33 pg/mL
IL-1a: 20.45 pg/mL
IL-1b: <18.72↓ pg/ml
IL-2: 0.98 pg/mL
IL-3: <0.48↓ pg/ml
IL-4: <0.31↓ pg/ml
IL-5: 2.41 pg/mL
IL-6: 1.12 pg/mL
IL-7: <0.33↓ pg/ml
IL-8: 162.8 pg/mL
IL-9: 4.1 pg/mL
IL-10: 14.42 pg/mL
IL-12 (p40): 19.56 pg/mL
IL-12 (p70): <1.48↓ pg/ml
IL-13: 11.42 pg/mL
IL-15: 15.16 pg/mL
IL-17A: <1.55↓ pg/ml
IL-17E/IL-25: <20.59↓ pg/ml
IL-17F: <16.96↓ pg/ml
IL-18: 2.04 pg/mL
IL-22: 9.4 pg/mL
IL-27: 51.46 pg/mL
IP-10: 1871 pg/mL
M-GSF: 78 pg/mL
MCP-1: 782.17 pg/mL
MCP-3: 29.76 pg/mL
MDC: 1903 pg/mL
MIG: 33510 pg/mL
MIP-1a: 119.77 pg/mL
MIP-1b: 243.76 pg/mL
PDGF-AA: 51.36 pg/mL
PDGF-AB/BB: 107.03 pg/mL
RANTES: 15.66 pg/mL
TGF-a: 75.94 pg/mL
TNFa: 21.61 pg/mL
TNFb: <0.73↓ pg/ml
VEGFa: <1.27↓ pg/ml
changes in cytokine profiles: did not induce significant changes
sCD40L: 84.33 pg/mL
